Data from US12616196B2, “Long protection mosquito repellent ointment” (MAIA AFRICA SAS, priority 2019, dated 2026).

Legend:
Anopheles gambiae s.l. = assay: Field human landing catches on treated lower legs, Goden village (WHO Guidelines 2009); format: in vivo; conditions: for Median CPT (complete protection time): Kaplan-Meier
Method: (§1) The protection time provided by ointment No. 9 of Example 1 has been measured according to the “Guidelines for efficacy testing of mosquito repellents for human skin” published by the World Health Organization in 2009 (noted hereafter “WHO Guidelines, 2009”). These guidelines describe how human landing catches must be performed on volunteers. The effectiveness of ointment No. 9 was evaluated and compared to a 20% ethanol solution of DEET (N, N-Diethyl-3-methylbenzamide), being the positive control, and an ethanol solution being the negative control.
(§2) Briefly, the study was carried out in real conditions at the Goden village (12°25′N, 1°20′W), a rural village in the locality of Gampela, 25 km north-east of Ouagadougou, the capital city of Burkina Faso. Goden is in the Sudanian Savanna with approximately 800 inhabitants mainly belonging to the Mossi ethnic group, mostly devoted to agriculture and rearing few animals such as dogs, pigs and others. Goden is known for its high density of malaria vectors due to its proximity to the Massiri river. This study was carried out during the high malaria transmission period, when the mosquito density was the highest A preliminary assessment of the collection site was carried out by undertaking captures on human volunteers before the tests themselves.
A total of twenty volunteers have been recruited from the Goden village and have been trained for the nocturnal collection of mosquitoes on human bait using mouth aspirator and flash torch known as Human Landing Catches (HCL). The age of the volunteers ranged from 18 to 50 years old. After receiving explanation of the aims, benefits and risks of the study, they signed a written informed consent. The composition of the ointment was not disclosed to the volunteers. Volunteers were instructed not to use any fragranced soap or perfume, tobacco or alcohol 12 hours before the start and throughout the experiments. Before applying treatments, the lower leg of volunteers was washed with neutral soap, rinsed with 70% of ethanol solution and naturally dried. Once their legs treated volunteers were also asked to avoid rubbing, touching or wetting the repellent-treated area.
Three treatments have been carried out in the study: • (i) one negative control (ethanol 100%), • (ii) two treatments of 20% DEET diluted in ethanol 100% of technical quality used as a positive control, since this repellent is considered as the reference, • (iii) two treatments of ointment No. 9.
The products were applied to the bare leg of the volunteers and the areas of application were exposed to mosquito bites in the field. Volunteers applied to their exposed leg: Ointment No. 9 at a dosage of 2 mg/cm^2, and 20% DEET in ethanol for the positive control at a dosage of 1 ml per 600 cm^2.
To establish the amount of repellent required for application in the experiments, the surface area of the leg of each volunteer were determined by first measuring the circumferences expressed in centimeter (cm) just below the knee, and above the ankle, multiplied by the length of the lower leg, measured from the knee to the ankle. The surface area (in cm^2) of skin was calculated according to formula (1) below: Area=½(Ck+Ca)Dka, (1) wherein Ck is the circumference below the knee in cm, Ca is the circumference above the ankle in centimeter, and Dka is the distance in centimeter between Ca and Ck. The amount needed for each volunteer was then determined depending on their leg length. In addition, the quantity of product left in bottles was weighed using a precision weighing balance (KERN & SOHN GmbH) to determine the amount applied by each volunteer. Overall, the average amount applied was 2.4±0.2 g per 1189±79.2 cm^2 and per volunteer's lower leg, leading to 2 mg/cm^2 of Ointment No. 9 and […] of a 20% DEET solution.
Volunteers were divided into five groups of four volunteers. All the members of a group received the same treatment at the same time. […]

Ae. aegypti (Bagamoyo) = assay: Semi-field system (SFS) recapture of released mosquitoes on treated lower limbs; format: in vivo, Aedes aegypti
Method: (§3) The study was conducted under ambient condition in the semi-field system (SFS) located in Bagamoyo district at the Ifakara Health Institute at Bagamoyo branch in Tanzania. Bagamoyo is located on the coast region of the Indian Ocean between latitudes 6° and 8′ South and between longitudes 30° and 37′ East. The district experience annual rainfall ranging between 800 mm and 1000 mm, temperature ranging between 22° C. and 33° C., and mean relative humidity of 73%.
(§4) Three laboratory-reared mosquito strains, aged 6 days old, sugar starved for 8 hours, nulliparous females, reactive to human odor on the day of the experiment, have been used for this experiment. Mosquito strains used were: (i) the pyrethroid insecticide resistant (20% mortality) An. arabiensis (Kingani, (ii) fully pyrethroid susceptible An. gambiae s.s. (Kisumu) and (iii) Ae. aegypti (Bagamoyo). The vector control product-testing unit of IHI supplied all mosquitoes used in the experiments.
The mosquitoes were reared in the insectary following MR4 guideline (MR4. Methods in Anopheles Research 2016; 2015 Edition). Adults were kept inside cages measuring 30 cm×30 cm×30 cm. Only hyperactive mosquitoes were selected at least 8 hours before the experiment. […] About 30 minutes before the experiment, mosquitoes were transferred to the SFS to acclimatize the environmental conditions. […]
(§5) Volunteers wore shorts, closed shoes and bug jacket to ensure mosquitoes had access to the lower limbs only. […] After application, an empty plastic cups were weighed to determine the quantity of repellent left in the cup. […]
(§6) During the last 9 days, we used same volunteers, compartments and rotation schedule. […] Volunteers recorded a time the first mosquito of each species landed on the limb and the recaptured mosquito was placed in a paper cup labelled with volunteers unique identification code, time of collection, position and treatment code. […]

An. arabiensis (Kingani) = assay: as above; format: in vivo
Method: as §3, §4
(§7) The mosquitoes were reared in the insectary following MR4 guideline (MR4. Methods in Anopheles Research 2016; 2015 Edition). Adults were kept inside cages measuring 30 cm×30 cm×30 cm. Only hyperactive mosquitoes were selected at least 8 hours before the experiment. […] About 30 minutes before the experiment, mosquitoes were transferred to the SFS to acclimatize the environmental conditions. The SFS offered the following advantages; 1) volunteers were exposed to laboratory-reared mosquitoes only, 2) experiments were run using a known number of mosquitoes throughout the experiments; 3) mosquitoes used were of known age (6 days), physiological status and avidity. These features improve data quality and less results variability between days and volunteers.
(§8) Three treatments have been tested: (i) Ethanol 100% as a negative control, (ii) 20% DEET diluted in ethanol 100% as a positive control, and (iii) ointment No. 9.
(§9) Volunteers wore shorts, closed shoes and bug jacket to ensure mosquitoes had access to the lower limbs only. Volunteers applied 20% DEET and ointment No. 9 at an average rate of 2 mg/cm^2 of the repellent to the lower limbs using latex glove to minimize absorption onto volunteer's hand. After application, an empty plastic cups were weighed to determine the quantity of repellent left in the cup. The composition of the ointment was not disclosed to the volunteers.
(§10) The study was divided into two experiments: one for Anopheles mosquitoes conducted in the late evening and the other for Ae. aegypti mosquitoes conducted early in the morning. The experiment for Anopheles started at 17:55 and that for Ae. aegypti at 06:00 hours.
(§11) The experiments were conducted for a total of 18 days. During the first 9 days 100 mosquitoes (50 per species) were released in each compartment starting at 18:00 hours for Anopheles species and at 06:00 hours for Ae. aegypti. After the release, the number of mosquitoes recaptured by volunteers who applied 20% DEET and ointment No. 9 was insignificant up to 6 hours of recapture period. This warranted to extend the recapture period to 12 hours 9 last days.
(§12) During the last 9 days, we used same volunteers, compartments and rotation schedule. Mosquitoes released were 100 per species and volunteers recaptured mosquitoes landing on their lower limbs using a mouth aspirator up to 12 hours of recapture period. Volunteers recorded a time the first mosquito of each species landed on the limb and the recaptured mosquito was placed in a paper cup labelled with volunteers unique identification code, time of collection, position and treatment code. The volunteer kept collecting subsequent mosquitoes up to 12 hours with cups changed after every hour.
(§13) At the end of recapture time, mosquitoes were killed by putting in the refrigerator for about 30 minutes and then sorted to species level. If the mosquito recaptured in the control was below 50 percent, the experiment was considered invalid, data discarded and the experiment repeated. […]

[1] = test system: An. gambiae s.s. (Kisumu); assay: as above; format: in vivo
Method: as §3, §4, §7, §8, §9, §10, §11, §12, §13

[2] = test system: An. arabiensis (Kingani), An. gambiae s.s. (Kisumu), Ae. aegypti (Bagamoyo); assay: Semi-field system (SFS), all species tested; format: in vivo, Anopheles and Aedes mosquitoes
Method: as §3
Three laboratory-reared mosquito strains, aged 6 days old, sugar starved for 8 hours, nulliparous females, reactive to human odor on the day of the experiment, have been used for this experiment. […]
as §5, §6

mosquitoes = assay: Field human landing catches, hourly mosquito biting rate; format: in vivo; conditions: with 95% CI
Method: as §1
as §2, with “themselves. […]” for “themselves.”

Other Anopheles = assay: Field human landing catches, Goden village; format: in vivo; conditions: total catch during the tests, collection 6 pm to 6 am
Method: as §1
as §2, with “themselves. […]” for “themselves.”

Anopheles funestus = assay: Field human landing catches, Goden village; format: in vivo; conditions: total catch during the tests, collection 6 pm to 6 am
Method: as §1
as §2, with “themselves. […]” for “themselves.”

Culicine = assay: Field human landing catches, Goden village; format: in vivo, Culicine (Aedes); conditions: total catch during the tests, collection 6 pm to 6 am
Method: as §1
as §2, with “themselves. […]” for “themselves.”

## CCN(CC)C(=O)c1cccc(C)c1 [20% DEET, N,N-diethyl-3-méthylbenzamide]
Anopheles gambiae s.l.; after 3 h (10 hours after application)
  percentage of repellency: under 80%
Anopheles gambiae s.l.; indoor and outdoor together
  Median CPT (complete protection time): 480 min
Anopheles gambiae s.l.; indoor
  Median CPT (complete protection time): 480 min
Anopheles gambiae s.l.; outdoor
  Median CPT (complete protection time): 480 min
Anopheles gambiae s.l.; total catch during the tests, collection 6 pm to 6 am
  mosquitoes caught by treatment: 686
Anopheles gambiae s.l.; versus negative control Ethanol
  increase of protection time compared to Ethanol: four-fold
Ae. aegypti (Bagamoyo); 12-hour recapture time
  Percentage protection (protective efficacy): 93.1%
  Percentage recapture: 4.8%
Ae. aegypti (Bagamoyo); up to 12 hours recapture
  Average CRT (average complete protection time, CPT): 436.9 min
An. arabiensis (Kingani); 12-hour recapture time
  Percentage protection (protective efficacy): 97.2%
  Percentage recapture: 2.7%
An. arabiensis (Kingani); up to 12 hours recapture
  Average CRT (average complete protection time, CPT): 580.9 min
[1]; 12-hour recapture time
  Percentage protection (protective efficacy): 96.8%
  Percentage recapture: 2.5%
[1]; up to 12 hours recapture
  Average CRT (average complete protection time, CPT): 575 min
[2]; 6-hour recapture time, all species tested
  protective efficacy: 100%
[2]; up to 6 hours of recapture period
  number of mosquitoes recaptured: insignificant
mosquitoes
  average mosquito bites received per person per hour: 1.01 (95%: 0.76-1.33) per person per hour
Other Anopheles
  mosquitoes caught by treatment: 1
Anopheles funestus
  mosquitoes caught by treatment: 1
Culicine
  mosquitoes caught by treatment: 7
